Laboratory results taken from PMC11062922 (Nature Chemical Biology, 2023).
Like-named read-outs stand apart in the source and are kept apart here.

Key:
PKN3 = PKN3 (Homo sapiens, UniProt Q6P5Z2); assay: Kinobeads full dose-response competition binding: PKN3; design: endogenous in cells; settings: for Relative Intensity 0.3nM: 0.3nM compound; for Relative Intensity 0.3nM / Relative Intensity 1nM / Relative Intensity 3nM / Relative Intensity 10nM / Relative Intensity 30nM / Relative Intensity 100nM / Relative Intensity 300nM / Relative Intensity 1000nM: DMSO = 1; for Relative Intensity 1nM: 1nM compound; for Relative Intensity 3nM: 3nM compound; for Relative Intensity 10nM: 10nM compound; for Relative Intensity 30nM: 30nM compound; for Relative Intensity 100nM: 100nM compound; for Relative Intensity 300nM: 300nM compound; for Relative Intensity 1000nM: 1000nM compound; for EC50: eight-dose curve fit;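 as to all read-outs here: inhibitor pre-incubated 45 min at 4 °C in cell lysate (5 mg/ml protein), then competed against Kinobeads ε pulldown for 30 min, bound kinase quantified by nano LC–MS/MS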
Chain of PKN3 (Q6P5Z2 whole entry): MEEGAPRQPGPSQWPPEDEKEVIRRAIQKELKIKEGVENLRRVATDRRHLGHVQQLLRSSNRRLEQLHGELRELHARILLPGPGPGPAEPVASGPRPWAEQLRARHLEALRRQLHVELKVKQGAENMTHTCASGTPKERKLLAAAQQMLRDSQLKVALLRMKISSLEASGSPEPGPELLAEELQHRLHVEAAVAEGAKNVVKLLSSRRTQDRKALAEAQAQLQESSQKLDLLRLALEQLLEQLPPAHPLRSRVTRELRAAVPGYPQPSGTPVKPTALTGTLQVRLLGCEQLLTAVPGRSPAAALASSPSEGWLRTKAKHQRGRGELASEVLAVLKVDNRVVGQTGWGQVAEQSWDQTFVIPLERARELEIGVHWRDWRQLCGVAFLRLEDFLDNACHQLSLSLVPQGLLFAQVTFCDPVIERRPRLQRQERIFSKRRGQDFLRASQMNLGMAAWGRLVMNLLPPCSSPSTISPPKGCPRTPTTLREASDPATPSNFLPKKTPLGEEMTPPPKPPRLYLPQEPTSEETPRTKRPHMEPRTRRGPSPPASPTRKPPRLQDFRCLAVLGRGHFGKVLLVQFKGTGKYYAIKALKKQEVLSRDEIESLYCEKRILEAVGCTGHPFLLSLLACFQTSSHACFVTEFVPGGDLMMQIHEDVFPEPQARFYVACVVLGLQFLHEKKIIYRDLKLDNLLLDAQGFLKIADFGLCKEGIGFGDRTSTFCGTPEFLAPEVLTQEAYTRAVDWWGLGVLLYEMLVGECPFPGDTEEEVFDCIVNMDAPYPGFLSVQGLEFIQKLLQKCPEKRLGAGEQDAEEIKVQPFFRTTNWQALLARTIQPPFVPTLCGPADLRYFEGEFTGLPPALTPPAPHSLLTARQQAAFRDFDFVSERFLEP

MYLK3 = assay: Kinobeads competition binding: MYLK3; design: species or system human; settings: target MYLK3;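 also: share of all-target engagement taken by this protein at its own Kdapp concentration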
ACOX3 = assay: Kinobeads competition binding: ACOX3; design: species or system human; settings: target ACOX3;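 also: share of all-target engagement taken by this protein at its own Kdapp concentration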
MAP2K1 = assay: Kinobeads competition binding: MAP2K1; design: species or system human; settings: target MAP2K1
PIK3CA = molecular target: T1, PIK3CA (Homo sapiens, UniProt P42336); assay: Kinobeads competition binding: PIK3CA; settings: target PIK3CA;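 also: share of all-target engagement taken by this protein at its own Kdapp concentration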
T1 construct: a mixture of lysates from five cancer cell lines; endogenous in cells
T1 sequence (P42336 whole entry): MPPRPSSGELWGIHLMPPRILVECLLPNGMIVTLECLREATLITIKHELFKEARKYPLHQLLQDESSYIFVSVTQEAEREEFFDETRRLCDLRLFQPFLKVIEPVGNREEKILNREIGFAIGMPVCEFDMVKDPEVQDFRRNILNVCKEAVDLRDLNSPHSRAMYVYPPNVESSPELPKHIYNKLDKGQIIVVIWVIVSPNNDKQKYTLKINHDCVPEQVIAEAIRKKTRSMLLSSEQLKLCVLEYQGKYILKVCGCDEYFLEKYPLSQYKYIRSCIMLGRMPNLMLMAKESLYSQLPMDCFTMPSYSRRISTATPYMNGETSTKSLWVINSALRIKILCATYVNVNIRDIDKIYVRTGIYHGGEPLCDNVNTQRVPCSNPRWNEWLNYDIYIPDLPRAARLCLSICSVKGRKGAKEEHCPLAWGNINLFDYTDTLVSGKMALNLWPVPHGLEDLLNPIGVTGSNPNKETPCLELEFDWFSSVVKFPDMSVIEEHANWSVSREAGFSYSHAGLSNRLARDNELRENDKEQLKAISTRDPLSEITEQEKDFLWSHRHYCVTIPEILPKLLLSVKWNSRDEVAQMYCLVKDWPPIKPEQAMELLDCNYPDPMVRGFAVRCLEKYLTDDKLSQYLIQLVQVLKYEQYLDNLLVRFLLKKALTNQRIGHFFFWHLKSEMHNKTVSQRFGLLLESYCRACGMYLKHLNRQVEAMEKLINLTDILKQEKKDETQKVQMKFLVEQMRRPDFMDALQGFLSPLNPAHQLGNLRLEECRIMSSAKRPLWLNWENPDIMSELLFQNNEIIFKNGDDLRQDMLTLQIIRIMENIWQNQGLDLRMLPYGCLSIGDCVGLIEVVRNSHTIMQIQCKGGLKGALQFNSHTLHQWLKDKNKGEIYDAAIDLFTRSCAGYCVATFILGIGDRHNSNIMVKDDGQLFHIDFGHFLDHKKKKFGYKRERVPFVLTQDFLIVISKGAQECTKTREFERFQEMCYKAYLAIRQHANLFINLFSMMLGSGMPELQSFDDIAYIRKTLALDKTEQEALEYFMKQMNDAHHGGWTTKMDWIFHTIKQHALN
T1 sequence (P27986 whole entry partner): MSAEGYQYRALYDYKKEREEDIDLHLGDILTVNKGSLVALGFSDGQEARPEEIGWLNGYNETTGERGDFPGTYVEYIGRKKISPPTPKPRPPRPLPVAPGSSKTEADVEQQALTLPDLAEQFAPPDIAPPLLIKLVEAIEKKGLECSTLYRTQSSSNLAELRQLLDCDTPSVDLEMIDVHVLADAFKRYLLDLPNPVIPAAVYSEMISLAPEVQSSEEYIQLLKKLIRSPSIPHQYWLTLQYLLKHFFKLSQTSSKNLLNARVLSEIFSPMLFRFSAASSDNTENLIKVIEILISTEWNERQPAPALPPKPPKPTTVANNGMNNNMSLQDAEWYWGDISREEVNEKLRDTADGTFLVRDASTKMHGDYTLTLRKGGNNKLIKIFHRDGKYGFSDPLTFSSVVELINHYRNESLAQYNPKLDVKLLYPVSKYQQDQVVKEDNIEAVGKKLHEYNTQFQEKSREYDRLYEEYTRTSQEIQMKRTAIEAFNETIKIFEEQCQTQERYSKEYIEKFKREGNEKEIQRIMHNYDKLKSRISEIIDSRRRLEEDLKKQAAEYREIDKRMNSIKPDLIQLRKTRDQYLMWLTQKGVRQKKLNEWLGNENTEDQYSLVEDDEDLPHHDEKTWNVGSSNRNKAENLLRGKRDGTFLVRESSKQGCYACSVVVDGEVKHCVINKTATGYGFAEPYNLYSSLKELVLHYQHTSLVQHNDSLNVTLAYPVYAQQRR
Text: Supplement 41589_2023_1459_MOESM4_ESM.xlsx, sheet "CATDS matrix" | column: PIK3CA

EPHB6 = molecular target: T2, EPHB6 (Homo sapiens, UniProt O15197); assay: Kinobeads two-dose competition binding: EPHB6; settings: target EPHB6
T2 construct: to maximize the representation of endogenous proteins; endogenous in cells
T2 sequence (O15197 32-1021): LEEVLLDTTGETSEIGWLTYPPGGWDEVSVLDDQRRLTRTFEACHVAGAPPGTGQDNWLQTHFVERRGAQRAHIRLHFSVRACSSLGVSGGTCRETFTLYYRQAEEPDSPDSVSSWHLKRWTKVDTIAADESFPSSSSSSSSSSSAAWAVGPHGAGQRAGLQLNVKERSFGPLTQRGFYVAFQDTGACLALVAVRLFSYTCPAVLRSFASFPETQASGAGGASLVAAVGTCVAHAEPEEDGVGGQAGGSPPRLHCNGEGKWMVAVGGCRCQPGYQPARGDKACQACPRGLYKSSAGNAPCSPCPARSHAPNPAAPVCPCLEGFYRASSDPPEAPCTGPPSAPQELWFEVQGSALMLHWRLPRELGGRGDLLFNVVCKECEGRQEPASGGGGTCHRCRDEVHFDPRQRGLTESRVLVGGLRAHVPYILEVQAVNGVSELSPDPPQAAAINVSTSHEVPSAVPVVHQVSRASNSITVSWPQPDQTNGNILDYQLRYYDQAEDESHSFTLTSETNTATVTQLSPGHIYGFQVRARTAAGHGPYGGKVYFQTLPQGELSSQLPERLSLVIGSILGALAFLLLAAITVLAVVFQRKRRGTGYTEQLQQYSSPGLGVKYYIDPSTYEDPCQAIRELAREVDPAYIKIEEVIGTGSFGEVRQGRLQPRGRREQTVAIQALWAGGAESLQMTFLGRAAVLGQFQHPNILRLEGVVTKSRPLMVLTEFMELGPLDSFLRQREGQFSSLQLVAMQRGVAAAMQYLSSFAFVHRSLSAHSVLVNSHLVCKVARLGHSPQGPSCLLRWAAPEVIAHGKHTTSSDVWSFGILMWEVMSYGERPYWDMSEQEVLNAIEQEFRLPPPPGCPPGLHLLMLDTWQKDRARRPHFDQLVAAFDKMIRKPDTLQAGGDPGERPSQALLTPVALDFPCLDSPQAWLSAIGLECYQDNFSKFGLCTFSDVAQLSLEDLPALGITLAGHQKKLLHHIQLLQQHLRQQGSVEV
Text: Briefly, Kinobeads comprise seven broad-spectrum small molecule kinase inhibitors immobilized on Sepharose beads. […]. Compounds of interest are set to compete for target protein binding with Kinobeads in the lysate and the amount of a given protein bound to Kinobeads in the presence of a compound can be quantified relative to a dimethylsulfoxide (DMSO) vehicle control by label-free mass spectrometry. This assay measures the physical interaction of a compound with thousands of endogenous proteins in parallel and, when systematically increasing the concentration of competitor, enables the calculation of an apparent interaction constant ( Kdapp ) for each compound and protein.
Kinobeads pulldown experiments were performed as described previously[13],[14],[17] with minor modification. […] The protein concentration was adjusted to 5 mg ml^−1. Kinase inhibitors were spiked into 0.5 ml of cell lysate at final concentrations of 100 and 1,000 nM (or DMSO, 0.3, 1, 3, 10, 30, 100, 300 and 1,000 nM for full dose experiments). […] Lysates were incubated for 45 min at 4 °C. Subsequently, lysates were incubated with Kinobeads ε (17.5 µl of settled beads) for 30 min at 4 °C. To assess the degree of protein depletion from the lysates by Kinobeads, the flow through of the DMSO control was recovered for a pulldown of pulldown experiment where the lysate was incubated a second time with fresh Kinobeads. Beads were washed in three steps with buffer containing 0.4%, 0.2% and no IGEPAL. Bound proteins were reduced with 50 mM DTT in 8 M Urea, 40 mM Tris-HCl pH 7.4 for 30 min at room temperature. After alkylation with 55 mM chloroacetamide, the urea concentration was reduced to 1–2 M and proteins were digested with trypsin. Acidified peptides were desalted and concentrated using SepPak tC18 µEluation plates (Waters). Samples were frozen, dried by vacuum centrifugation and stored at −20 °C.
Each kinase inhibitor was processed together with all DMSO controls of the same plate. Additionally, each search was supplemented with five high quality DMSO controls for consistent peptide identification and protein grouping. The resultant file (proteinGroups.txt) was used for subsequent filtering, normalization, data visualization and target annotation that was automatically performed by a data processing pipeline built in house that used R (including the ‘drc’ and ‘heatmap’ packages). First, reverse hits, potential contaminants and not quantified proteins in the DMSO control samples were discarded. Protein raw and label-free quantification intensities were normalized to the median DMSO control intensity to obtain relative residual binding intensities for each protein group at every inhibitor concentration and standard deviations of the DMSO control intensity were calculated. IC50 values were estimated based on the following equation IC50=I×100−inhibition/inhibition where [I] is the inhibitor concentration that was used for IC50 calculation and ‘inhibition’ the relative residual binding intensity. […]. Estimated Kdapp values were then calculated by multiplying the estimated IC50 values with a protein-dependent correction factor that was limited to a maximum value of one. The correction factor accounts for the depletion of a target protein from the lysate by Kinobeads. The depletion can be measured by the ratio of the amount of protein captured in two consecutive pulldowns of the same DMSO control lysate. In this study, correction factors were determined in separate experiments using the same lysate mixture and the same bead batch. Correction factors were set to the median of all correction factors. Targets of kinase inhibitors were annotated using the previously published random forest classifier. A training data set was annotated manually. […]

MET = molecular target: T3, MET (Homo sapiens, UniProt P08581); assay: Kinobeads two-dose competition binding: MET; settings: target MET
T3 construct: endogenous in cells
T3 sequence (P08581 25-1390): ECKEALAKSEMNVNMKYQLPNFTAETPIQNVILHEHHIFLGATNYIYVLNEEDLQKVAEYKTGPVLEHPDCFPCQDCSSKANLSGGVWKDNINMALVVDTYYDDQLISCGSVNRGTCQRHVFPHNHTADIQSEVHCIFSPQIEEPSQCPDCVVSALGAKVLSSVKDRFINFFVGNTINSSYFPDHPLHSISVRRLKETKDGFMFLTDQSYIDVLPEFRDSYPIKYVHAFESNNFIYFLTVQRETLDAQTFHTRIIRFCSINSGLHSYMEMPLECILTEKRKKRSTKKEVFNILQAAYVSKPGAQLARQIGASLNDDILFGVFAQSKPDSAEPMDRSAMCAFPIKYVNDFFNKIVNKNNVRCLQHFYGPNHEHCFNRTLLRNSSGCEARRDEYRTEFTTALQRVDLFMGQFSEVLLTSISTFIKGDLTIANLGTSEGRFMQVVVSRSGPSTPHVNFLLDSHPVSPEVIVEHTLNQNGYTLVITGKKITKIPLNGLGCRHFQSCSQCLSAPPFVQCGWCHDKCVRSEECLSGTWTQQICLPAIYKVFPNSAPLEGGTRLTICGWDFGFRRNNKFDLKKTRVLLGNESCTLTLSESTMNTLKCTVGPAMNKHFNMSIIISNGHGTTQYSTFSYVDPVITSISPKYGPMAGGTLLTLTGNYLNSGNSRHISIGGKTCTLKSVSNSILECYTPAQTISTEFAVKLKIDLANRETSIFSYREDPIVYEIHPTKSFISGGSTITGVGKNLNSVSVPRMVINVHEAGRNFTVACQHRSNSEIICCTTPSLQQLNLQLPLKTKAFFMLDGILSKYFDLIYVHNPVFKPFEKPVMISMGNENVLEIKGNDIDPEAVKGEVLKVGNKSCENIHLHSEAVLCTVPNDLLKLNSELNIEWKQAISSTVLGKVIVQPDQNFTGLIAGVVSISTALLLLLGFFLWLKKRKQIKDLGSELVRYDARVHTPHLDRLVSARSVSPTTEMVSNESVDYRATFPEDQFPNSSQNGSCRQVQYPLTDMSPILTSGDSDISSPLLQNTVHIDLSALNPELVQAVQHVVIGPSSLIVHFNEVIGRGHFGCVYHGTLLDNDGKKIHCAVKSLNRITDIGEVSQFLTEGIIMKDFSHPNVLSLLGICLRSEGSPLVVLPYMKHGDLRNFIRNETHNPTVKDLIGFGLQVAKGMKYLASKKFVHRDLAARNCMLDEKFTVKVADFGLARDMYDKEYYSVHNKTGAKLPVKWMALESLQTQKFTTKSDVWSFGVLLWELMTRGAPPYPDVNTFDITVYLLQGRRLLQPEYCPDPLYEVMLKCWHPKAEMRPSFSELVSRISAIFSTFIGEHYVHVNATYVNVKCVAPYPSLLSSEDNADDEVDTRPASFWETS

DAPK3 = molecular target: T4, DAPK3 (Homo sapiens, UniProt O43293); assay: Kinobeads competition binding: DAPK3; settings: target DAPK3;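 also: share of all-target engagement taken by this protein at its own Kdapp concentration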
T4 construct: endogenous in cells
T4 sequence (O43293 whole entry): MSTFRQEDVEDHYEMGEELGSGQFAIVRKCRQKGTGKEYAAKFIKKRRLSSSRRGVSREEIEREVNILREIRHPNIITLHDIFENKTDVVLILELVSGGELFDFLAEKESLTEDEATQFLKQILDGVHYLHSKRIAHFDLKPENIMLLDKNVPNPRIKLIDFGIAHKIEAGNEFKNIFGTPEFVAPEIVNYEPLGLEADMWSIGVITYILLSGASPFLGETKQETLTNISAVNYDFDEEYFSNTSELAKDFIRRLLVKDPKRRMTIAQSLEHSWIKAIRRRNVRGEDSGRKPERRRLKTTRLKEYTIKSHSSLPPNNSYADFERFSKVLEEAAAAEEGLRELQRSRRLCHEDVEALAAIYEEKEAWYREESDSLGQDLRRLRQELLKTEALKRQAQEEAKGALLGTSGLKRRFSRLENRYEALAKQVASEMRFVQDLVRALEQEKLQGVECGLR

[1] = Gene Name PKN3, EC50 with Correction, doses in nM, read-out: apparent Kd
[2] = Kinobeads full dose-response, read-out: Kdapp PKN3

SMILES | Relative Intensity 0.3nM (PKN3; Gene Name PKN3) | Relative Intensity 1nM (PKN3; Gene Name PKN3) | Relative Intensity 3nM (PKN3; Gene Name PKN3) | Relative Intensity 10nM (PKN3; Gene Name PKN3) | Relative Intensity 30nM (PKN3; Gene Name PKN3) | Relative Intensity 100nM (PKN3; Gene Name PKN3) | Relative Intensity 300nM (PKN3; Gene Name PKN3) | Relative Intensity 1000nM (PKN3; Gene Name PKN3) | Kd (PKN3; [1]) [nM] | EC50 (PKN3; Gene Name PKN3, doses in nM) [nM] | Kd (PKN3; [2]) [nM] | CATDS (MYLK3) | CATDS (ACOX3) | CATDS (MAP2K1) | CATDS (PIK3CA) | CATDS (EPHB6) | CATDS (MET) | CATDS (DAPK3)
NCc1ccc(-c2nc(-c3ccncc3)c(-c3ccc(Cl)c(O)c3)[nH]2)cc1 [SB-476429-A] | 1.299 | 1.281 | 1.311 | 1.076 | 0.6326 | 0.3718 | 0 | 0 | 38.4 | 38.4 | 38 | – | – | – | – | – | – | –
Nc1ncnc2[nH]c(-c3ccccc3)nc12 [AH5015_KCGS] | – | – | – | – | – | – | – | – | – | – | – | 0 | 0 | 0 | 0 | 0 | 0 | 0
CCc1cc2c(cc1N1CCC(N3CCOCC3)CC1)C(C)(C)c1[nH]c3cc(C#N)ccc3c1C2=O [Alectinib] | – | – | – | – | – | – | – | – | – | – | – | 0 | 0 | 0 | 0 | 0 | 0 | 0
CCN1CCN(Cc2ccc(Nc3ncc(F)c(-c4cc(F)c5nc(C)n(C(C)C)c5c4)n3)nc2)CC1 [Abemaciclib] | – | – | – | – | – | – | – | – | – | – | – | 0 | 0 | 0 | 0 | 0 | 0 | 0
CN(C)C/C=C/C(=O)Nc1cc2c(Nc3ccc(F)c(Cl)c3)ncnc2cc1O[C@H]1CCOC1 [Afatinib] | – | – | – | – | – | – | – | – | – | – | – | – | 0 | – | 0 | 0 | 0 | –
CCn1c(-c2nonc2N)nc2c(C#CC(C)(C)O)nc(OCCN)cc21 [GSK902056A] | 1.0043 | 0.9527 | 0.8181 | 0.5011 | 0.201 | 0 | 0 | 0 | 10.2 | 10.2 | 10 | – | – | – | – | – | – | –
N#CC1(c2ccc(NC(=O)c3cccnc3NCc3ccncc3)cc2)CCCC1 [Apatinib] | – | – | – | – | – | – | – | – | – | – | – | 0 | 0 | 0 | 0 | 0 | 0 | 0
CCn1c(-c2nonc2N)nc2c(C#CC(C)(C)O)nc(OCCNC)cc21 [GSK949675A] | 1.302 | 1.271 | 1.02 | 1.139 | 0.7655 | 0.7191 | 0 | 0 | 89.8 | 89.8 | 90 | – | – | – | – | – | – | –
